From ChEMBL document CHEMBL5537151, “Design, synthesis and bioactivity evaluation of novel fusion peptides and their CPT conjugates inducing effective anti-tumor responses on HER2 positive tumors” (Eur J Med Chem, 2024)
pIC50: −log10 of the molar value. Peptide text beside a SMILES is read from it. * marks the point of attachment. X7 = CCC1(OC(=O)CCCCCN2C(=O)CC(SC[C@H](N)C(=O)*)C2=O)C(=O)OCc2c1cc1n(c2=O)Cc2cc3ccccc3nc2-1; X2 = CCC1(OC(=O)CCCCCN2C(=O)CC(*)C2=O)C(=O)OCc2c1cc1n(c2=O)Cc2cc3ccccc3nc2-1; X1 = CCC1(C(=O)OCCS*)C(=O)OCc2c1cc1n(c2=O)Cc2cc3ccccc3nc2-1

Assays:
[1] = Cytotoxicity against HER-negative human MCF-10A cells incubated for 48 hrs by CCK-8 assay; type: toxicity, cell-based
SK-BR-3 [2] = assay: Induction of apoptosis in human SK-BR-3 cells assessed as live cells at 1 uM incubated for 24 hrs by Annexin V-FITC/PI staining based flow cytometry analysis (reference value: 94.6%); type: functional
SK-BR-3 [3] = assay: Induction of apoptosis in human SK-BR-3 cells assessed as early apoptotic cells at 1 uM incubated for 24 hrs by Annexin V-FITC/PI staining based flow cytometry analysis (reference value: 2.80%); type: functional
SK-BR-3 [4] = assay: Induction of apoptosis in human SK-BR-3 cells assessed as late apoptotic cells at 1 uM incubated for 24 hrs by Annexin V-FITC/PI staining based flow cytometry analysis (reference value: 1.11%); type: functional
SK-BR-3 [5] = assay: Induction of apoptosis in human SK-BR-3 cells assessed as necrotic cells at 1 uM incubated for 24 hrs by Annexin V-FITC/PI staining based flow cytometry analysis (reference value: 1.49%); type: functional
[6] = Toxicity in nude mouse xenografted with human SK-BR-3 cells assessed as increase in ALT level at 8 umol/kg, iv administered every 3 days for 14 days; type: organism-based; conditions: in vivo, 336 h, dose 8 µmol/kg, time 14 day
[7] = Toxicity in nude mouse xenografted with human SK-BR-3 cells assessed as increase in AST level at 8 umol/kg, iv administered every 3 days for 14 days; type: organism-based; conditions: in vivo, 336 h, dose 8 µmol/kg, time 14 day
[8] = Toxicity in nude mouse xenografted with human SK-BR-3 cells assessed as change in alkaline phosphatase level at 8 umol/kg, iv administered every 3 days for 14 days; type: organism-based; conditions: in vivo, 336 h, dose 8 µmol/kg, time 14 day
[9] = Toxicity in nude mouse xenografted with human SK-BR-3 cells assessed as change in total protein level at 8 umol/kg, iv administered every 3 days for 14 days; type: organism-based; conditions: in vivo, 336 h, dose 8 µmol/kg, time 14 day
[10] = Toxicity in nude mouse xenografted with human SK-BR-3 cells assessed as change in albumin level at 8 umol/kg, iv administered every 3 days for 14 days; type: organism-based; conditions: in vivo, 336 h, dose 8 µmol/kg, time 14 day
[11] = Toxicity in nude mouse xenografted with human SK-BR-3 cells assessed as change in globulin level at 8 umol/kg, iv administered every 3 days for 14 days; type: organism-based; conditions: in vivo, 336 h, dose 8 µmol/kg, time 14 day
SK-BR-3 [12] = assay: cells; conditions: Homo sapiens, SK-BR-3, 48 h
Description: Cytotoxicity against HER-positive human SK-BR-3 cells incubated for 48 hrs by CCK-8 assay

NCI-N87 = assay: cells; conditions: Homo sapiens, NCI-N87, 48 h
Description: Cytotoxicity against HER-positive human NCI-N87 cells incubated for 48 hrs by CCK-8 assay

SK-OV-3 = assay: cells; conditions: Homo sapiens, SK-OV-3, 48 h
Description: Cytotoxicity against HER-positive human SK-OV-3 cells incubated for 48 hrs by CCK-8 assay

MDA-MB-231 = assay: cells; conditions: Homo sapiens, MDA-MB-231, 48 h
Description: Cytotoxicity against HER-negative human MDA-MB-231 cells incubated for 48 hrs by CCK-8 assay

Row | pIC50 (SK-BR-3 [12]) | pIC50 (NCI-N87) | pIC50 (SK-OV-3) | pIC50 (MDA-MB-231) | Structure (SMILES) | IC50 at 48 h [1] [µM] | Activity (SK-BR-3 [2]) [%] | Activity (SK-BR-3 [3]) [%] | Activity (SK-BR-3 [4]) [%] | Activity (SK-BR-3 [5]) [%] | Activity [6] | Activity [7] | Activity [8] | Activity [9] | Activity [10] | Activity [11]
1 | 5.59 | 5.23 | 5.08 | 4.97 | CC[C@H](C)[C@H](NC(=O)[C@@H]1CCCN1C(=O)[C@@H](NC(=O)[C@H](C)N)C(C)C)C(=O)N[C@@H](C)C(=O)N[C@@H](CCC(N)=O)C(=O)N[C@@H](CCCCN)C(=O)NCC(=O)N[C@@H](Cc1ccccc1)C(=O)N[C@@H](CC(C)C)C(=O)NCC(=O)N[C@@H](CSSCCOC(=O)C1(CC)C(=O)OCc2c1cc1n(c2=O)Cc2cc3ccccc3nc2-1)C(=O)N[C@@H](CC(N)=O)C(=O)N1CCC[C@H]1C(=O)N[C@@H](CC(N)=O)C(=O)N[C@@H](Cc1c[nH]c2ccccc12)C(=O)NCC(=O)N[C@@H](CCCNC(=N)N)C(=O)N[C@@H](CO)C(=O)N[C@@H](Cc1c[nH]c2ccccc12)C(=O)N[C@@H](Cc1ccc(O)cc1)C(=O)N[C@@H](CC(N)=O)C(=O)N[C@@H](CCC(N)=O)C(=O)N[C@@H](CCCNC(=N)N)C(=O)N[C@@H](Cc1ccccc1)C(=O)N[C@@H](CCCCN)C(N)=O (stereo not given in full) (H-AVPIAQKGFLGC(X1)NPNWGRSWYNQRFK-NH2) | 15.1 | – | – | – | – | – | – | – | – | – | –
2 | 4.74 | 4.60 | < 4.30 | 4.51 | CC[C@H](C)[C@H](NC(=O)[C@@H]1CCCN1C(=O)[C@@H](NC(=O)[C@H](C)N)C(C)C)C(=O)N[C@@H](C)C(=O)N[C@@H](CCC(N)=O)C(=O)N[C@@H](CCCCN)C(=O)NCC(=O)N[C@@H](Cc1ccccc1)C(=O)N[C@@H](CC(C)C)C(=O)NCC(=O)N[C@@H](CSC1CC(=O)N(CCCCCC(=O)OC2(CC)C(=O)OCc3c2cc2n(c3=O)Cc3cc4ccccc4nc3-2)C1=O)C(=O)N[C@@H](CC(N)=O)C(=O)N1CCC[C@H]1C(=O)N[C@@H](CC(N)=O)C(=O)N[C@@H](Cc1c[nH]c2ccccc12)C(=O)NCC(=O)N[C@@H](CCCNC(=N)N)C(=O)N[C@@H](CO)C(=O)N[C@@H](Cc1c[nH]c2ccccc12)C(=O)N[C@@H](Cc1ccc(O)cc1)C(=O)N[C@@H](CC(N)=O)C(=O)N[C@@H](CCC(N)=O)C(=O)N[C@@H](CCCNC(=N)N)C(=O)N[C@@H](Cc1ccccc1)C(=O)N[C@@H](CCCCN)C(N)=O (stereo not given in full) (H-AVPIAQKGFLGC(X2)NPNWGRSWYNQRFK-NH2) | > 50 | – | – | – | – | – | – | – | – | – | –
3 | 4.90 | 4.62 | < 4.30 | 4.50 | CC[C@H](C)[C@H](NC(=O)[C@@H]1CCCN1C(=O)[C@@H](NC(=O)[C@H](C)N)C(C)C)C(=O)N[C@@H](C)C(=O)N[C@@H](CCC(N)=O)C(=O)N[C@@H](CCCCN)C(=O)NCC(=O)N[C@@H](Cc1ccccc1)C(=O)N[C@@H](CC(C)C)C(=O)NCC(=O)N[C@@H](CC(N)=O)C(=O)N1CCC[C@H]1C(=O)N[C@@H](CC(N)=O)C(=O)N[C@@H](Cc1c[nH]c2ccccc12)C(=O)NCC(=O)N[C@@H](CCCNC(=N)N)C(=O)N[C@@H](CO)C(=O)N[C@@H](Cc1c[nH]c2ccccc12)C(=O)N[C@@H](Cc1ccc(O)cc1)C(=O)N[C@@H](CC(N)=O)C(=O)N[C@@H](CCC(N)=O)C(=O)N[C@@H](CCCNC(=N)N)C(=O)N[C@@H](Cc1ccccc1)C(=O)N[C@@H](CCCCNC(=O)[C@@H](N)CSC1CC(=O)N(CCCCCC(=O)OC2(CC)C(=O)OCc3c2cc2n(c3=O)Cc3cc4ccccc4nc3-2)C1=O)C(N)=O (stereo not given in full) (H-AVPIAQKGFLGNPNWGRSWYNQRFK(X7)-NH2) | > 50 | – | – | – | – | – | – | – | – | – | –

Row | Structure (SMILES) | pIC50 (SK-BR-3 [12]) | pIC50 (NCI-N87) | pIC50 (SK-OV-3) | pIC50 (MDA-MB-231) | IC50 at 48 h [1] [µM] | Activity (SK-BR-3 [2]) [%] | Activity (SK-BR-3 [3]) [%] | Activity (SK-BR-3 [4]) [%] | Activity (SK-BR-3 [5]) [%] | Activity [6] | Activity [7] | Activity [8] | Activity [9] | Activity [10] | Activity [11]
4 | CC[C@@]1(O)C(=O)OCc2c1cc1n(c2=O)Cc2cc3ccccc3nc2-1 [CAMPTOTHECIN] | 6.42 | 5.68 | 5.39 | 6.28 | 3.02 | 54.9 | 27.3 | 16.9 | 0.94 | Toxic | Toxic | Non-Toxic | Non-Toxic | Non-Toxic | Non-Toxic
